We go through three compounds from PubChem BioAssay AID190 (DTP/NCI, 2004).

For the assay, the system named is AKR/Lw mice, AKR lymphoma ip, median survival T/C. Description: NCI In Vivo Anticancer Drug Screen. Data for tumor model Lymphoma AKR (Transplanted) (intraperitoneal) in AKR/Lw mice. The following applies: endpoint: median survival time, higher = longer survival. As for the experimental part:
The antitumor activity of compounds was measured in mice bearing transplantable tumors. Survival or tumor size were measured and the results are expressed as the measurement made in the treated group (T) divided by the measurement made in the vehicle treated control group (C). The tumor model used in this assay is Lymphoma AKR (Transplanted) (intraperitoneal) in AKR/Lw mice

The mark [1] stands for this setting: dose: 20.0 mg/kg/injection, schedule: Q04DX004 (ip), vehicle: Klucel (hydroxypropylcellulose) (HPC).

Where “and” joins values, the source holds several entries; their conditions need not be identical. Equal values may be shown once. Toxic doses and inconclusive results are not listed.

On to `O=NN(CCCl)C(=O)N[C@H]1CCCC[C@@H]1Cl`, for which the T/C is, setting by setting: (dose: 5.0 mg/kg/injection, schedule: Q04DX004 (ip), vehicle: Klucel (hydroxypropylcellulose) (HPC)) 123 % of control; (dose: 5.0 mg/kg/injection, schedule: Q04DX004 (ip), vehicle: saline) 117 % of control; under setting [1], 97 % of control.
For `CC1CCC(NC(=O)N(CCCl)N=O)CC1` (stereo unspecified), the T/C is 112 % of control (dose: 1.25 mg/kg/injection, schedule: Q14DX003 (ip), vehicle: saline with Tween-80); 106 % of control (dose: 2.0 mg/kg/injection, schedule: Q04DX003 (ip), vehicle: saline with Tween-80); 113 % of control (dose: 2.0 mg/kg/injection, schedule: Q07DX004 (ip), vehicle: saline with Tween-80); 93 % of control (dose: 2.5 mg/kg/injection, schedule: Q01DX006 (ip), vehicle: saline with Tween-80); 102 % of control (dose: 2.5 mg/kg/injection, schedule: Q09DX002 (ip), vehicle: saline with Tween-80); 108 % of control (dose: 2.5 mg/kg/injection, schedule: Q10DX002 (ip), vehicle: saline with Tween-80). Further, the T/C reads like this: (dose: 2.5 mg/kg/injection, schedule: Q14DX003 (ip), vehicle: saline with Tween-80) 108 % of control and 112 % of control (2×); (dose: 3.0 mg/kg/injection, schedule: Q01DX001 (ip), vehicle: saline with Tween-80) 111 % of control; (dose: 4.4 mg/kg/injection, schedule: Q04DX003 (ip), vehicle: saline with Tween-80) 92 % of control; (dose: 4.4 mg/kg/injection, schedule: Q07DX004 (ip), vehicle: saline with Tween-80) 124 % of control; (dose: 4.8 mg/kg/injection, schedule: Q01DX001 (ip), vehicle: saline with Tween-80) 116 % of control; (dose: 5.0 mg/kg/injection, schedule: Q01DX006 (ip), vehicle: saline with Tween-80) 90 % of control. For the same compound, the T/C is 101 % of control (dose: 5.0 mg/kg/injection, schedule: Q09DX002 (ip), vehicle: saline with Tween-80); 94 % of control (dose: 5.0 mg/kg/injection, schedule: Q10DX002 (ip), vehicle: saline with Tween-80); 106 % of control and 118 % of control (dose: 6.25 mg/kg/injection, schedule: Q07DX003 (ip), vehicle: saline); 118 % of control (dose: 6.7 mg/kg/injection, schedule: Q07DX004 (ip), vehicle: saline with Tween-80); 120 % of control (dose: 7.5 mg/kg/injection, schedule: Q01DX006 (ip), vehicle: saline with Tween-80); 101 % of control (dose: 7.5 mg/kg/injection, schedule: Q09DX002 (ip), vehicle: saline with Tween-80). Besides, the T/C was 86 % of control (dose: 8.0 mg/kg/injection, schedule: Q09DX002 (ip), vehicle: saline with Tween-80); 112 % of control (dose: 10.0 mg/kg/injection, schedule: Q01DX006 (ip), vehicle: saline with Tween-80); 66 % of control (dose: 10.0 mg/kg/injection, schedule: Q04DX003 (ip), vehicle: saline with Tween-80); 86 % of control (dose: 10.0 mg/kg/injection, schedule: Q04DX004 (ip), vehicle: Klucel (hydroxypropylcellulose) (HPC)); 107 % of control (dose: 10.0 mg/kg/injection, schedule: Q07DX004 (ip), vehicle: saline with Tween-80); 107 % of control (2×) and 117 % of control (dose: 10.0 mg/kg/injection, schedule: Q09DX002 (ip), vehicle: saline with Tween-80). The T/C (dose: 10.0 mg/kg/injection, schedule: Q10DX002 (ip), vehicle: saline with Tween-80) was 116 % of control; the T/C (dose: 11.0 mg/kg/injection, schedule: Q01DX001 (ip), vehicle: saline with Tween-80) was 106 % of control; the T/C (dose: 12.0 mg/kg/injection, schedule: Q01DX001 (ip), vehicle: saline) is 103 % of control; the T/C (dose: 13.5 mg/kg/injection, schedule: Q10DX002 (ip), vehicle: saline with Tween-80) was 104 % of control; the T/C (dose: 15.0 mg/kg/injection, schedule: Q04DX004 (ip), vehicle: Klucel (hydroxypropylcellulose) (HPC)) is 94 % of control; the T/C (dose: 15.0 mg/kg/injection, schedule: Q14DX003 (ip), vehicle: saline with Tween-80) was 109 % of control. Moreover, the T/C was 111 % of control (dose: 16.0 mg/kg/injection, schedule: Q01DX001 (ip), vehicle: saline with Tween-80); 86 % of control (dose: 16.0 mg/kg/injection, schedule: Q09DX002 (ip), vehicle: saline with Tween-80); 86 % of control under setting [1]; 118 % of control and 121 % of control (dose: 25.0 mg/kg/injection, schedule: Q07DX003 (ip), vehicle: saline); 116 % of control (dose: 27.0 mg/kg/injection, schedule: Q10DX002 (ip), vehicle: saline with Tween-80); 80 % of control (dose: 32.0 mg/kg/injection, schedule: Q09DX002 (ip), vehicle: saline with Tween-80). Also, the T/C is 116 % of control (dose: 36.0 mg/kg/injection, schedule: Q01DX001 (ip), vehicle: saline with Tween-80); 262 % of control (dose: 36.0 mg/kg/injection, schedule: Q01DX001 (ip), vehicle: saline); 103 % of control (dose: 45.0 mg/kg/injection, schedule: Q10DX002 (ip), vehicle: saline with Tween-80); 100 % of control and 117 % of control (dose: 48.0 mg/kg/injection, schedule: Q01DX001 (ip), vehicle: saline); 55 % of control (dose: 54.0 mg/kg/injection, schedule: Q10DX002 (ip), vehicle: saline with Tween-80).
With `COc1cc2c(c3c1c(=O)c1ccccc1n3C)C=CC(C)(C)O2`, the T/C (dose: 16.0 mg/kg/injection, schedule: Q01DX010 (ip), vehicle: Klucel (hydroxypropylcellulose) (HPC)) is 106 % of control; the T/C (dose: 31.25 mg/kg/injection, schedule: Q01DX010 (ip), vehicle: Klucel (hydroxypropylcellulose) (HPC)) was 103 % of control; the T/C (dose: 36.0 mg/kg/injection, schedule: Q03HX024 (ip), vehicle: Klucel (hydroxypropylcellulose) (HPC)) is 120 % of control; the T/C (dose: 62.5 mg/kg/injection, schedule: Q01DX010 (ip), vehicle: Klucel (hydroxypropylcellulose) (HPC)) is 122 % of control; the T/C (dose: 62.5 mg/kg/injection, schedule: Q03HX024 (ip), vehicle: Klucel (hydroxypropylcellulose) (HPC)) was 115 % of control; the T/C (dose: 125.0 mg/kg/injection, schedule: Q03HX024 (ip), vehicle: Klucel (hydroxypropylcellulose) (HPC)) was 115 % of control. In addition, the T/C (dose: 360.0 mg/kg/injection, schedule: Q04DX003 (ip), vehicle: Klucel (hydroxypropylcellulose) (HPC)) was 122 % of control.
